Data taken from ChEMBL document CHEMBL1138436, “Biological activity and chemistry of taxoids from the Japanese yew, Taxus cuspidata” (J Nat Prod, 2004).

Legend:
Type in all cases: functional
[1] = test system: ACHN; assay: Growth inhibition of human ACHN cells
[2] = Growth inhibition of human HBC4 cells
[3] = test system: SF-295; assay: Growth inhibition of human SF295 cells
[4] = test system: MKN-7; assay: Growth inhibition of human MKN7 cells
[5] = test system: NCI-H522; assay: Growth inhibition of human NCI-H522 cells
[6] = test system: MKN-74; assay: Growth inhibition of human MKN74 cells
[7] = test system: OVCAR-3; assay: Growth inhibition of human OVCAR-3 cells
[8] = test system: SNB-78; assay: Growth inhibition of human SNB78 cells
[9] = test system: St-4; assay: Growth inhibition of human St-4 cells
[10] = Growth inhibition of human BSY1 cells
[11] = test system: SF-539; assay: Growth inhibition of human SF539 cells
[12] = test system: OVCAR-5; assay: Growth inhibition of human OVCAR5 cells
[13] = test system: PC-3; assay: Growth inhibition of human PC3 cells
[14] = test system: OVCAR-4; assay: Growth inhibition of human OVCAR4 cells
[15] = read-out: LC50 (the source's name)
[16] = read-out: pLC50 (the source's name) (converted)

C=C1[C@@H](OC(=O)/C=C/c2ccccc2)C[C@H](OC(C)=O)[C@]2(C)[C@@H]1C[C@]1(C(C)(C)O)C[C@H](OC(C)=O)C(C)=C1[C@@H](OC(=O)c1ccccc1)[C@@H]2OC(C)=O [TAXUSPINE A]
GI50 ([1]; read-out: GI50): 87 µM | CC50 [1, 15]: > 100 µM | TGI ([1]; read-out: TGI): > 100 µM | GI50 ([1]; read-out: pGI50 (converted)): 87.1 µM | TGI ([1]; read-out: pTGI (converted)): 100 µM | GI50 ([2]; read-out: GI50): 100 µM | CC50 [2, 15]: > 100 µM | TGI ([2]; read-out: TGI): > 100 µM | GI50 ([2]; read-out: pGI50 (converted)): 72.4 µM | TGI ([2]; read-out: pTGI (converted)): 100 µM | GI50 ([3]; read-out: GI50): 10 µM | CC50 [3, 15]: > 100 µM | TGI ([3]; read-out: TGI): > 100 µM | GI50 ([3]; read-out: pGI50 (converted)): 11 µM | TGI ([3]; read-out: pTGI (converted)): 100 µM | TGI [4]: > 100 µM | GI50 ([4]; read-out: GI50): 5.1 µM | CC50 [4, 15]: > 100 µM | GI50 ([4]; read-out: pGI50 (converted)): 5.13 µM | GI50 ([5]; read-out: GI50): 3.1 µM | CC50 [5, 15]: > 100 µM | TGI ([5]; read-out: TGI): 81 µM | GI50 ([5]; read-out: pGI50 (converted)): 3.09 µM | TGI ([5]; read-out: pTGI (converted)): 81.3 µM | GI50 ([6]; read-out: GI50): > 100 µM | CC50 [6, 15]: > 100 µM | GI50 ([6]; read-out: pGI50 (converted)): 9.55 µM | CC50 [6, 16]: 100 µM | TGI ([6]; read-out: pTGI (converted)): 100 µM | GI50 ([7]; read-out: GI50): 5 µM | CC50 [7, 15]: > 100 µM | TGI ([7]; read-out: TGI): > 100 µM | GI50 ([7]; read-out: pGI50 (converted)): 5.01 µM | CC50 [7, 16]: 100 µM | TGI ([7]; read-out: pTGI (converted)): 100 µM | GI50 ([8]; read-out: GI50): 3.2 µM | CC50 [8, 15]: > 100 µM | TGI ([8]; read-out: TGI): > 100 µM | GI50 ([8]; read-out: pGI50 (converted)): 3.16 µM | CC50 [8, 16]: 100 µM | TGI ([8]; read-out: pTGI (converted)): 100 µM | GI50 ([9]; read-out: GI50): 24 µM | CC50 [9, 15]: > 100 µM | TGI ([9]; read-out: TGI): > 100 µM | GI50 ([9]; read-out: pGI50 (converted)): 24 µM | CC50 [9, 16]: 100 µM | TGI ([9]; read-out: pTGI (converted)): 100 µM | GI50 ([10]; BSY-1, read-out: GI50): 6.9 µM | CC50 ([10]; BSY-1, read-out: LC50 (the source's name)): > 100 µM | TGI ([10]; BSY-1, read-out: TGI): 82 µM | GI50 ([10]; BSY-1, read-out: pGI50 (converted)): 6.92 µM | CC50 ([10]; BSY-1, read-out: pLC50 (the source's name) (converted)): 100 µM | TGI ([10]; BSY-1, read-out: pTGI (converted)): 87.1 µM | GI50 ([11]; read-out: GI50): 100 µM | CC50 [11, 15]: > 100 µM | TGI ([11]; read-out: TGI): > 100 µM | GI50 ([11]; read-out: pGI50 (converted)): 100 µM | CC50 [11, 16]: 100 µM | TGI ([11]; read-out: pTGI (converted)): 100 µM | GI50 ([12]; read-out: GI50): 32 µM | CC50 [12, 15]: > 100 µM | TGI ([12]; read-out: TGI): > 100 µM | GI50 ([12]; read-out: pGI50 (converted)): 32.4 µM | CC50 [12, 16]: 100 µM | TGI ([12]; read-out: pTGI (converted)): 100 µM | GI50 ([13]; read-out: GI50): 5.2 µM | CC50 [13, 15]: > 100 µM | TGI ([13]; read-out: TGI): > 100 µM | GI50 ([13]; read-out: pGI50 (converted)): 5.25 µM | TGI ([13]; read-out: pTGI (converted)): 100 µM | GI50 ([14]; read-out: GI50): 22 µM | CC50 [14, 15]: > 100 µM | TGI ([14]; read-out: TGI): > 100 µM | GI50 ([14]; read-out: pGI50 (converted)): 22.4 µM | CC50 [14, 16]: 100 µM
